# Entries after “also recorded” stand apart in the source; their conditions may differ.
# Legend:
# Ishikawa cell [1] = test: Agonist/antagonist character of the analogs (Tables 1 and 2); assay type: cell-based; details: estrogen agonism or antagonism, assay not named in the tables
# Description: From the estrogen competition assay, we expected that the methyl and ethyl esters, E11-2,1 and E11-2,2 would have relatively high activity in the estrogen potency assay, induction of alkaline phosphatase in Ishikawa cells. However, the results were quite unexpected (see FIG. 5, attached). […] We had never previously seen this disparity between estrogen receptor binding and biological activity. It occurred to us that we were observing the results that would obtained with a SERM and that E11-2,2 was in fact an antiestrogen. Consequently, we repeated the Ishikawa assay as an antiestrogenic assay (the assay is run in the presence of specified amounts of estradiol). […] We continued our synthesis of various analogs in order to define the chemical characteristics that lead to antiestrogenic effects. […] In this regard, several compounds are described with a 17α-ethynyl group in order to protect the C-17 hydroxyl from biological oxidation.
# estrogen receptor = biological target: T1, estrogen receptor (Homo sapiens, UniProt P03372); test: Estrogen receptor competition assay (relative binding affinity); details: estradiol (E2) = 100%
# T1 sequence (P03372 1-595): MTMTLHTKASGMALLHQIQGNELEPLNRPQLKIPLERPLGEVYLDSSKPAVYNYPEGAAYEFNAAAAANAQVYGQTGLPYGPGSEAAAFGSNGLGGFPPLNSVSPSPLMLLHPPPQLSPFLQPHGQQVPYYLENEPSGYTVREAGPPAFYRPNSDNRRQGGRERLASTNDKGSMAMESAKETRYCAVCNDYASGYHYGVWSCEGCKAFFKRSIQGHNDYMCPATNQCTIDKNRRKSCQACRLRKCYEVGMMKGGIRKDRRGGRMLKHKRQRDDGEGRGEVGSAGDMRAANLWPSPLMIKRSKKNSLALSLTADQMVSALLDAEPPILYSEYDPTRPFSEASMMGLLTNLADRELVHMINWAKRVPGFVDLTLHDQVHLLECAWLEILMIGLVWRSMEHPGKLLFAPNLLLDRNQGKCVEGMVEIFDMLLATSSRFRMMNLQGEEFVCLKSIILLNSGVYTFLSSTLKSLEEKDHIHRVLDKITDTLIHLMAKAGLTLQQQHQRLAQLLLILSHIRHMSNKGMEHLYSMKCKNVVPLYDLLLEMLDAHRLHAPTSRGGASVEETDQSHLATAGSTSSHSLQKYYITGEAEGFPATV
# Ishikawa cell [2] = test: Antiestrogen Ishikawa cell assay (run in the presence of estradiol); assay type: cell-based; details: for antiestrogenic activity (in words): inhibition of estradiol-stimulated alkaline phosphatase
# Description: (§1) From the estrogen competition assay, we expected that the methyl and ethyl esters, E11-2,1 and E11-2,2 would have relatively high activity in the estrogen potency assay, induction of alkaline phosphatase in Ishikawa cells. However, the results were quite unexpected (see FIG. 5, attached). […] We had never previously seen this disparity between estrogen receptor binding and biological activity. It occurred to us that we were observing the results that would obtained with a SERM and that E11-2,2 was in fact an antiestrogen. Consequently, we repeated the Ishikawa assay as an antiestrogenic assay (the assay is run in the presence of specified amounts of estradiol).
# Ishikawa cells = test: Ishikawa estrogenic potency assay, induction of alkaline phosphatase; assay type: cell-based; details: for relative stimulatory activity (RSA): induction of alkaline phosphatase, estradiol set at 100%; for estrogenic activity (in words): induction of alkaline phosphatase in Ishikawa cells
# Description: as §1, with “Ishikawa Estrogenic Potency Assay From” for “From”
# [3] = tested on: uterotrophic action of estradiol; test: In vivo uterotrophic assay, antiestrogenic action; parameters: species or system rat; details: immature female rats; for effect on uterotrophic action of estradiol: 20 ng estradiol
# Description: In Vivo Uterotropic Activity
# The analogs were administered concurrently in the same oil.
Compound,agonist / antagonist character (Ishikawa cell [1]),other results
"COC(=O)C[C@H]1C[C@]2(C)[C@@H](O)CC[C@H]2[C@@H]2CCc3cc(O)ccc3[C@@H]12 [E11-2,1]",estrogen,"relative binding affinity (RBA) (estrogen receptor): 24%; antiestrogenic activity (in words) (Ishikawa cell [2]): neither E11-2,1 nor E11-2,0 showed any antiestrogenic activity; relative stimulatory activity (RSA) (Ishikawa cells): 16%"
"CC(=O)OCCC[C@H]1C[C@]2(C)[C@@H](O)CC[C@H]2[C@@H]2CCc3cc(O)ccc3[C@@H]12 [E11-3,2Rev]",antagonist,–
"C[C@]12C[C@H](CCOC3CC3)[C@@H]3c4ccc(O)cc4CC[C@H]3[C@@H]1CC[C@@H]2O [E11-2,cyclo-Pr ether]",strong antagonist,–
"CC(C)OCCCC1CC2(C)C(O)CCC2C2CCc3cc(O)ccc3C12 (centres unmarked) [E11-3,iPr ether]",strong antagonist,–
"CCCCOC(=O)C[C@H]1C[C@]2(C)[C@@H](O)CC[C@H]2[C@@H]2CCc3cc(O)ccc3[C@@H]12 [E11-2,4]",strong antagonist,–
"CCOC(=O)C[C@H]1C[C@]2(C)[C@@H](O)CC[C@H]2[C@@H]2CCc3cc(O)ccc3[C@@H]12 [E11-2,2]",antiestrogen; also recorded: strong antagonist,"relative binding affinity (RBA) (estrogen receptor): 45%; antiestrogenic activity (in words) (Ishikawa cell [2]): inhibited the estrogenic stimulation of alkaline phosphatase in the Ishikawa cell, with very high potency; Ki (Ishikawa cell [2]; inhibition of estrogenic stimulation of alkaline phosphatase, several assays): 1 to 2 nM; estrogenic activity (in words) (Ishikawa cells): almost inactive; effect on uterotrophic action of estradiol ([3]; 3 μg analog): partially active; effect on uterotrophic action of estradiol ([3]; 10 μg analog): completely abolished the effect of 20 ng estradiol; effect on uterotrophic action of estradiol (uterine weight) ([3]; 100 μg analog, 50 ng estradiol, FIG. 7): inhibiting the action of 50 ng of estradiol"
"CCOCC1CC2(C)C(O)CCC2C2CCc3cc(O)ccc3C12 (centres unmarked) [E11-1,2ether]",agonist,–
"COCCC1CC2(C)C(O)CCC2C2CCc3cc(O)ccc3C12 (centres unmarked) [E11-2,1ether]",agonist/slight antagonist,–
"CCOCCCC1CC2(C)C(O)CCC2C2CCc3cc(O)ccc3C12 (centres unmarked) [E11-3,2 ether]",strong antagonist,–
"CC(C)(C)COC(=O)C[C@H]1C[C@]2(C)[C@@H](O)CC[C@H]2[C@@H]2CCc3cc(O)ccc3[C@@H]12 [E11-2,5neo]",antagonist,–
CCC(=O)C[C@H]1C[C@]2(C)[C@@H](O)CC[C@H]2[C@@H]2CCc3cc(O)ccc3[C@@H]12 [E11-2K2],weak agonist,–
"COCCCC1CC2(C)C(O)CCC2C2CCc3cc(O)ccc3C12 (centres unmarked) [E11-3,1 ether]",antagonist,–
"C[C@]12C[C@H](CCOC3CCCC3)[C@@H]3c4ccc(O)cc4CC[C@H]3[C@@H]1CC[C@@H]2O [E11-2,cyclo-Pent ether]",extremely strong antagonists; also recorded: very strong antagonist,–
"C#CC1(O)CCC2C3CCc4cc(O)ccc4C3C(CCCOC(C)(C)C)CC21C (stereo not drawn) [17α-ethynyl-E11-3,tBu ether]",very strong antagonist,–
"CC(C)(C)C(=O)OCCC[C@H]1C[C@]2(C)[C@@H](O)CC[C@H]2[C@@H]2CCc3cc(O)ccc3[C@@H]12 [E11-3,piv Rev]",antagonist,–
CCCC(=O)C[C@H]1C[C@]2(C)[C@@H](O)CC[C@H]2[C@@H]2CCc3cc(O)ccc3[C@@H]12 [E11-2K3],antagonist,effect on uterotrophic response of estradiol ([3]; 30 μg analog): completely abolished the uterotrophic response of estradiol

Compound,agonist / antagonist character (Ishikawa cell [1]),other results
"CCOCCC1CC2(C)C(O)CCC2C2CCc3cc(O)ccc3C12 (centres unmarked) [E11-2,2ether]",strong antagonist,inhibition of the effect of estradiol ([3]; 30 μg analog): about 50%
"CC(=O)OCC[C@H]1C[C@]2(C)[C@@H](O)CC[C@H]2[C@@H]2CCc3cc(O)ccc3[C@@H]12 [E11-2,2Rev]",agonist,–
"C#CC1(O)CCC2C3CCc4cc(O)ccc4C3C(CCCOC(C)C)CC21C (stereo not drawn) [17α-ethynyl-E11-3,iPr ether]",very strong antagonist,–
"C[C@]12CC[C@@H]3c4ccc(O)cc4CC[C@H]3[C@@H]1CCC2=O [estrone, reference compound]",–,relative stimulatory activity (RSA) (Ishikawa cells): 4%
"C[C@]12C[C@H](CC(=O)O)[C@@H]3c4ccc(O)cc4CC[C@H]3[C@@H]1CC[C@@H]2O [E11-2,0]",–,"relative binding affinity (RBA) (estrogen receptor): 0.3%; antiestrogenic activity (in words) (Ishikawa cell [2]): neither E11-2,1 nor E11-2,0 showed any antiestrogenic activity; estrogenic activity (in words) (Ishikawa cells): more active than E11-2,2"
"CCCOC(=O)C[C@H]1C[C@]2(C)[C@@H](O)CC[C@H]2[C@@H]2CCc3cc(O)ccc3[C@@H]12 [E11-2,3]",strong antagonist,–
"CC(C)OCCC1CC2(C)C(O)CCC2C2CCc3cc(O)ccc3C12 (centres unmarked) [E11-2,iPr ether]",strong antagonist,–
"CCCOCC1CC2(C)C(O)CCC2C2CCc3cc(O)ccc3C12 (centres unmarked) [E11-1,3ether]",strong antagonist,–
"CC(C)OC(=O)C[C@H]1C[C@]2(C)[C@@H](O)CC[C@H]2[C@@H]2CCc3cc(O)ccc3[C@@H]12 [E11-2,3i]",strong antagonist,–
"CCCOCCC1CC2(C)C(O)CCC2C2CCc3cc(O)ccc3C12 (centres unmarked) [E11-2,3ether]",strong antagonist,–
CCOC(=S)C[C@H]1C[C@]2(C)[C@@H](O)CC[C@H]2[C@@H]2CCc3cc(O)ccc3[C@@H]12 [E11-2S2],antagonist,"agonist / antagonist character (Ishikawa cell [1]; listed as E11-2S,2): strong antagonist"
"CC(=O)OC[C@H]1C[C@]2(C)[C@@H](O)CC[C@H]2[C@@H]2CCc3cc(O)ccc3[C@@H]12 [E11-1,2Rev]",agonist,–
"CC(C)(C)OCCCC1CC2(C)C(O)CCC2C2CCc3cc(O)ccc3C12 (centres unmarked) [E11-3,tBu ether]",extremely strong antagonists; also recorded: very strong antagonist,–
"COC(=O)CC[C@H]1C[C@]2(C)[C@@H](O)CC[C@H]2[C@@H]2CCc3cc(O)ccc3[C@@H]12 [E11-3,1]",antagonist,–
"CC12CC(CCCOCCF)C3c4ccc(O)cc4CCC3C1CCC2O (centres unmarked) [E11-3,2F1 ether]",strong antagonist,–
"CC(C)(C)OCCC1CC2(C)C(O)CCC2C2CCc3cc(O)ccc3C12 (centres unmarked) [E11-2,tBu ether]",very weak antagonist,–

# — patent publication US9315539B2 (YALE UNIVERSITY, priority 2002, dated 2016)
